# According to article PMC4979516, “Quinazoline-based tricyclic compounds that regulate programmed cell death, induce neuronal differentiation, and are curative in animal models for excitotoxicity and hereditary brain disease” (Cell Death Discovery, 2015):
# Tested on: kainic acid-injected Sprague-Dawley rats
# Assay: Systemic kainic acid injection model in rats (seizures, hyper reactivity, hippocampal histology)
# Format: in vivo
# Conditions: rat
# Excerpt: Epileptic seizures in rats, including gnawing, wet dog shakes, head bobbing, forepaw abduction, rearing, forelimb clonus, loss of balance, and convulsions were induced by systemic injections of kainic acid and scored as previously described.[48],[83–85] Such induced seizures typically are accompanied by neurodegeneration in the hippocampus, amydala, pyriform cortex, followed by edema in the diencephalon, and mesencephalon.[43],[44],[86] To test the effects of pretreatment with MGV-1 on the consequences of kainic acid injections, first of all MGV-1 was dissolved in vehicle (10% (v/v) dimethylsulfoxide (DMSO) in sesame oil). After that, 8 weeks old rats received an intraperitoneal injection of 15, 7.5, or 3.75 mg of MGV-1 (per kg/rat), according to previous methods.[48] […] After the kainic acid injections, the rats were monitored continuously for 2 h for the development of epileptic symptoms.[48],[86]
# For MGV-1 post-treatment, rats first received a KA injection (9 mg/kg/rat) and then a single injection of 15 mg/kg MGV-1 2 h later, that is, after the typical period for full blown seizure activity. In a single experiment, each experimental group and the vehicle control group consisted of nine rats. Then, for 1 week, daily injections of MGV-1 were given, and the rats were tested daily for hyper reactivity in response to handling.[47] Histological assays were applied 2 weeks after kainic acid injections.
# For histological assays, rats that had developed seizures and had subsequently received treatment or control vehicle were sedated with ketamine (75 mg/kg) and xylazine (10 mg/kg) injections until no reflexes were seen and were then perfused with 4% of paraformaldehyde. […] The brains were taken and then stored in paraformaldehyde 4% solution at 4 °C. After 48 h, the solution was changed to 20% sucrose solution at 4 °C. Brains of rats that were post treated with MGV-1 were prepared in the same way. After the brains had sunk they were embedded in optimal cutting temperature compound, frozen with liquid nitrogen, and stored at −70 °C. The brains were cut at −18 °C on a Cryostat Leica (Wetzlar, Germany) CM3050S microtome in 40 μm sections from Bregma −2.8 to −5.8. The sections were kept in PBS without Ca^2+ and Mg^2+ with 0.5% sodium azide at 4 °C. Sections were incubated with primary antibodies against anti-NeuN to label neurons.[87] The appropriate secondary antibodies were applied with VECTASTAIN Peroxidase ABC Kits (Vector Laboratories, Burlingame, CA, USA) based on avidin–biotin, according to the manufacturer’s instructions. The labeled, floating sections were mounted on microscope slides and coverslipped applying glycerol vinyl alcohol aqueous mounting solution. For observations and micrographs, a BH2 Olympus (Tokyo, Japan) upright microscope outfitted with a Nikon (Tokyo, Japan) DSFi1 digital camera was used.
smiles,measurement,setting,value
"CN(C)C(=O)Oc1nc(-c2ccccc2)nc2ccccc12 [MGV-1, 2-phenylquinazolin-4-yl dimethylcarbamate]",Induction of seizures by kainic acid,15 and 7.5 mg/kg MGV-1 i.p. 2 h before kainic acid 9 mg/kg,reduction of seizure incidence by half
same,"Hyper reactivity in response to handling, post-treatment","MGV-1 15 mg/kg 2 h after kainic acid, then daily for 6 days",restores normal response to handling
same,"Damage in hippocampal area CA1 (NeuN labeling), post-treatment","MGV-1 15 mg/kg 2 h after kainic acid, then daily for a week","attenuated damage to area CA1, but less so than MGV-1 pretreatment"
same,"Hyper reactivity in response to handling, pretreatment","MGV-1 2 h before kainic acid, week after injection",attenuates the incidence of the hyper reactivity
same,"Damage in hippocampal area CA1 (NeuN labeling), pretreatment","MGV-1 i.p. before kainic acid 9 mg/kg, histology 2 weeks later",well attenuated
